{"source": "ChEMBL document CHEMBL5375968", "about": "“Peptide TK-HR from the Skin of Chinese Folk Medicine Frog Hoplobatrachus Rugulosus Accelerates Wound Healing via the Activation of the Neurokinin-1 Receptor” (J Med Chem, 2023)", "key": {"[1]": {"system": "Neutrophil", "assay": "Induction of chemotaxis in BALB/c mouse neutrophils assessed as increase in cell polarization measured for 15 mins by Zigmond-chamber based microscopy", "assay_type": "functional", "details": "dose 5-40 µM"}, "[2]": {"system": "Neutrophil", "assay": "Induction of chemotaxis in BALB/c mouse neutrophils assessed as increase in ratio of cell polarization at 40 uM measured for 15 mins by Zigmond-chamber based microscopy (reference value: 14.6 %)", "assay_type": "functional", "details": "0.25 h"}, "[3]": {"system": "Neutrophil", "assay": "Induction of ROS production in BALB/c mouse neutrophils at 10 to 20 uM incubated for 2 hrs by DCFH-DA staining based analysis", "assay_type": "functional, cell-based", "details": "dose 10-20 µM"}, "[4]": {"system": "Escherichia coli", "assay": "Antimicrobial activity against Escherichia coli ATCC 25922 assessed as microbial growth inhibition at 100 uM", "assay_type": "functional, organism-based"}, "[5]": {"system": "Pseudomonas aeruginosa", "assay": "Antimicrobial activity against Pseudomonas aeruginosa ATCC 27853 assessed as microbial growth inhibition at 100 uM", "assay_type": "functional, organism-based"}, "[6]": {"system": "Cutibacterium acnes", "assay": "Antimicrobial activity against Propionibacterium acnes ATCC 6919 assessed as microbial growth inhibition at 100 uM", "assay_type": "functional, organism-based"}, "[7]": {"system": "Candida albicans", "assay": "Antimicrobial activity against Candida albicans ATCC 10231 assessed as microbial growth inhibition at 100 uM", "assay_type": "functional, organism-based"}, "[8]": {"system": "RAW264.7", "assay": "Induction of IL-6 expression in mouse RAW264.7 cells incubated for 24 hrs by ELISA", "assay_type": "functional, cell-based", "details": "dose 2.5-20 µM"}, "[9]": {"assay": "Induction of TGF-beta1 level in mouse RAW264.7 cells at 10 uM incubated for 24 hrs by ELISA", "assay_type": "functional"}, "[10]": {"assay": "Induction of TGF-beta1 level in Aprepitant-treated mouse RAW264.7 cells at 10 uM incubated for 24 hrs by ELISA", "assay_type": "functional"}, "[11]": {"system": "RAW264.7", "assay": "Upregulation of phosphorylated JNK level in mouse RAW264.7 cells at 2.5 to 20 uM incubated for 4 hrs by Western blot analysis", "assay_type": "functional, cell-based", "details": "dose 2.5-20 µM"}, "[12]": {"system": "RAW264.7", "assay": "Effect on total JNK level in mouse RAW264.7 cells at 2.5 to 20 uM incubated for 4 hrs by Western blot analysis", "assay_type": "functional, cell-based", "details": "dose 2.5-20 µM"}, "[13]": {"system": "RAW264.7", "assay": "Upregulation of phosphorylated Smad2 level in mouse RAW264.7 cells at 2.5 to 20 uM incubated for 4 hrs by Western blot analysis", "assay_type": "functional, cell-based", "details": "dose 2.5-20 µM"}, "[14]": {"system": "RAW264.7", "assay": "Upregulation of phosphorylated Smad3 level in mouse RAW264.7 cells at 2.5 to 20 uM incubated for 4 hrs by Western blot analysis", "assay_type": "functional, cell-based", "details": "dose 2.5-20 µM"}, "[15]": {"system": "RAW264.7", "assay": "Upregulation of phosphorylated ERK level in Aprepitant-treated mouse RAW264.7 cells at 2.5 to 20 uM incubated for 4 hrs by Western blot analysis", "assay_type": "functional, cell-based", "details": "dose 2.5-20 µM"}, "[16]": {"system": "RAW264.7", "assay": "Upregulation of phosphorylated p38 level in Aprepitant-treated mouse RAW264.7 cells at 2.5 to 20 uM incubated for 4 hrs by Western blot analysis", "assay_type": "functional, cell-based", "details": "dose 2.5-20 µM"}, "[17]": {"system": "RAW264.7", "assay": "Upregulation of phosphorylated JNK level in Aprepitant-treated mouse RAW264.7 cells at 2.5 to 20 uM incubated for 4 hrs by Western blot analysis", "assay_type": "functional, cell-based", "details": "dose 2.5-20 µM"}, "[18]": {"system": "HaCaT", "assay": "Induction of cell migration in Aprepitant-treated human HaCaT cells assessed as healing rate at 20 uM measured after 48 hrs by scratch healing assay (reference value: 63.1 %)", "assay_type": "functional"}, "[19]": {"system": "HaCaT", "assay": "Induction of cell migration in human HaCaT cells assessed as formation of cytoplasmic protrusions at 20 uM measured after 24 hrs by immunofluorescence microscopy", "assay_type": "functional, cell-based"}, "[20]": {"system": "HUVEC", "assay": "Induction of cell migration in Mitomycin C-treated HUVEC cells assessed as healing rate at 20 uM measured after 24 hrs by scratch healing assay (reference value: 30.2 %)", "assay_type": "functional, Homo sapiens"}, "[21]": {"system": "HUVEC", "assay": "Induction of cell migration in HUVEC cells assessed as actin stress fiber formation at peripheral side of cytoplasmic membrane at 20 uM measured after 24 hrs by immunofluorescence microscopy", "assay_type": "functional, cell-based", "details": "Homo sapiens"}, "[22]": {"assay": "Induction of wound healing in BALB/c mouse model of full-thickness wounds at 50 ug/ml, TOP bid measured after 4 days (reference value: 48.6 %)", "assay_type": "functional", "details": "dose 50 µg/ml, time 4 day"}, "[23]": {"assay": "Induction of wound healing in BALB/c mouse model of full-thickness wounds at 50 ug/ml, TOP bid measured after 6 days (reference value: 71.7 %)", "assay_type": "functional", "details": "dose 50 µg/ml, time 6 day"}, "[24]": {"assay": "Induction of wound healing in BALB/c mouse model of full-thickness wounds at 50 ug/ml, TOP bid measured after 8 days (reference value: 81.0 %)", "assay_type": "functional", "details": "dose 50 µg/ml, time 8 day"}, "[25]": {"assay": "Induction of wound healing in BALB/c mouse model of full-thickness wounds at 100 ug/ml, TOP bid measured after 8 days (reference value: 81.0 %)", "assay_type": "functional", "details": "dose 100 µg/ml, time 8 day"}, "[26]": {"assay": "Toxicity in BALB/c mouse model of full-thickness wounds assessed as inflammatory foci in spleen at 200 ug/ml, TOP bid measured upto 8 days by H and E staining based analysis", "assay_type": "tissue-based", "details": "in vivo, topical_or_ocular, 192 h, dose 200 µg/ml, time < 8 day"}, "[27]": {"assay": "Induction of wound healing in BALB/c mouse model of full-thickness wounds at 50 ug/ml, TOP bid pretreated with Aprepitant for 2 hrs followed by compound administration measured after 4 days (reference value: 50.6 %)", "assay_type": "functional", "details": "dose 50 µg/ml, time 4 day"}, "[28]": {"species": "Mus musculus", "assay": "Induction of wound healing in BALB/c mouse model of full-thickness wounds assessed as increase in granulation tissue formation at 50 ug/ml, TOP bid measured after 8 days by H and E staining based analysis", "assay_type": "functional", "details": "dose 50.0 µg/ml, time 8.0 day"}, "[29]": {"system": "Splenic fibroblast", "assay": "Effect on cell proliferation in human […] fibroblasts at 5 to 40 uM incubated for 24 hrs by MTT assay", "assay_type": "functional, cell-based", "details": "dose 5-40 µM"}, "[30]": {"system": "Splenic fibroblast", "assay": "Effect on cell migration in human […] fibroblasts at 20 uM incubated upto 48 hrs by scratch healing assay", "assay_type": "functional, cell-based"}, "[31]": {"system": "NIH3T3", "assay": "Effect on TGF-1beta production in mouse 3T3 cells at 5 to 40 uM incubated for 24 hrs by ELISA", "assay_type": "functional, cell-based", "details": "dose 5-40 µM"}, "[32]": {"system": "Splenic fibroblast", "assay": "Effect on Smad3 activation in human […] fibroblasts upto 20 uM by Western blot analysis", "assay_type": "functional, cell-based"}, "[33]": {"species": "Mus musculus", "assay": "Induction of wound healing in BALB/c mouse model of full-thickness wounds assessed as increase in TGF-1beta production in wound skin at 50 to 200 ug/ml, TOP bid measured after 2 to 4 days by ELISA", "assay_type": "functional", "details": "dose 50-200 µg/ml, time 2-4 day"}, "[34]": {"species": "Mus musculus", "assay": "Induction of wound healing in BALB/c mouse model of full-thickness wounds assessed as increase in recruitment of M1-type macrophages in wound skin at 50 ug/ml, TOP bid measured after 2 days by IHC analysis", "assay_type": "functional", "details": "dose 50.0 µg/ml, time 2.0 day"}, "[35]": {"species": "Mus musculus", "assay": "Induction of wound healing in BALB/c mouse model of full-thickness wounds assessed as increase in TNF-alpha level in wound skin at 50 ug/ml, TOP bid measured after 2 days by ELISA", "assay_type": "functional", "details": "dose 50.0 µg/ml, time 2.0 day"}, "[36]": {"species": "Mus musculus", "assay": "Induction of wound healing in BALB/c mouse model of full-thickness wounds assessed as increase in IL-10 level in wound skin at 50 ug/ml, TOP bid measured after 4 days by ELISA", "assay_type": "functional", "details": "dose 50.0 µg/ml, time 4.0 day"}, "[37]": {"species": "Mus musculus", "assay": "Induction of wound healing in BALB/c mouse model of full-thickness wounds assessed as increase in endothelial cells in wound skin at 50 ug/ml, TOP bid measured after 4 days by IHC analysis", "assay_type": "functional, cell-based", "details": "dose 50.0 µg/ml, time 4.0 day"}}, "note": "The source made the active and inactive calls. No cut-off for these calls is given here."}
{"substance": "H-KPNPDRFYGLM-NH2", "values": [{"measurement": "Activity", "setting": "[1]", "value": "Dose-Dependent Effect"}, {"measurement": "Activity", "setting": "[2]", "value": 50.4, "unit": "%"}, {"measurement": "Activity", "setting": "[3]", "value": "Active"}, {"measurement": "Activity", "setting": "[4]", "value": "inactive"}, {"measurement": "Activity", "setting": "[5]", "value": "inactive"}, {"measurement": "Activity", "setting": "[6]", "value": "inactive"}, {"measurement": "Activity", "setting": "[7]", "value": "inactive"}, {"measurement": "Activity", "setting": "[8]", "value": "Dose-Dependent Effect"}, {"measurement": "Activity", "setting": "[9]", "value": 90.7, "unit": "pg/mL"}, {"measurement": "Activity", "setting": "[10]", "value": 43.7, "unit": "pg/mL"}, {"measurement": "Activity", "setting": "[11]", "value": "Active"}, {"measurement": "Activity", "setting": "[12]", "value": "inactive"}, {"measurement": "Activity", "setting": "[13]", "value": "Active"}, {"measurement": "Activity", "setting": "[14]", "value": "Active"}, {"measurement": "Activity", "setting": "[15]", "value": "inactive"}, {"measurement": "Activity", "setting": "[16]", "value": "inactive"}, {"measurement": "Activity", "setting": "[17]", "value": "inactive"}, {"measurement": "Activity", "setting": "[18]", "value": 76.1, "unit": "%"}, {"measurement": "Activity", "setting": "[19]", "value": "Active"}, {"measurement": "Activity", "setting": "[20]", "value": 43.7, "unit": "%"}, {"measurement": "Activity", "setting": "[21]", "value": "Active"}, {"measurement": "Activity", "setting": "[22]", "value": 64.8, "unit": "%"}, {"measurement": "Activity", "setting": "[23]", "value": 86.6, "unit": "%"}, {"measurement": "Activity", "setting": "[24]", "value": 93.1, "unit": "%"}, {"measurement": "Activity", "setting": "[25]", "value": 100, "unit": "%"}, {"measurement": "Activity", "setting": "[26]", "value": "Non-Toxic"}, {"measurement": "Activity", "setting": "[27]", "value": 56.1, "unit": "%"}, {"measurement": "Activity", "setting": "[28]", "value": "Active"}, {"measurement": "Activity", "setting": "[29]", "value": "inactive"}, {"measurement": "Activity", "setting": "[30]", "value": "inactive"}, {"measurement": "Activity", "setting": "[31]", "value": "inactive"}, {"measurement": "Activity", "setting": "[32]", "value": "inactive"}, {"measurement": "Activity", "setting": "[33]", "value": "Active"}, {"measurement": "Activity", "setting": "[34]", "value": "Active"}, {"measurement": "Activity", "setting": "[35]", "value": "Active"}, {"measurement": "Activity", "setting": "[36]", "value": "Active"}, {"measurement": "Activity", "setting": "[37]", "value": "Active"}]}
